Here are results for eleven compounds from ChEMBL document CHEMBL1124998, “3-(2-carboxyindol-3-yl)propionic acid derivatives: antagonists of the strychnine-insensitive glycine receptor associated with the N-methyl-D-aspartate receptor complex” (J Med Chem, 1990).

For assay [1], the target named is Glutamate NMDA receptor. In words: Activity against rat cortical and hippocampal membrane N-methyl-D-aspartate glutamate receptor 1/2A/2B/2C/2D using [3H]CPP. It counts as tissue-based, Hippocampus.
Assay [2] concerns the target Glutamate NMDA receptor (Rattus norvegicus) (UniProt P35439+Q00959+Q00960+Q00961+Q62645+Q8VHN2+Q9R1M7). In words: Selectivity ratio for CPP and gly NMDA binding. The format is protein-complex assay.
Assay [3] has as its target Glutamate NMDA receptor. In words: Activity against rat cortical and hippocampal membrane strychnine-insensitive N-methyl-D-aspartate glutamate receptor 1 using [3H]-gly. The format is tissue-based, Hippocampus.
The species entered for a further assay is Rattus norvegicus. In words: Activity was determined by inhibition of glutamate stimulated accumulation of cyclic GMP in neonatal rat cerebral slices. The format is functional.

Each structure is given as a SMILES string. pIC50: −log10 of the molar value.

By pIC50 is commonly meant the negative decadic logarithm of the IC50, by convention in mol/L. Read a high pIC50 as a low IC50. Consider `O=C(O)CCc1c(C(=O)O)[nH]c2ccccc12`, for which the negative-log IC50 (pIC50) is 4.47 at Glutamate NMDA receptor [1] and 4.52 at Glutamate NMDA receptor [3]. Moreover, the Ratio in assay [2] is 1.

With `O=C(O)c1cc2ccccc2[nH]1` [INDOLE-2-CARBOXYLIC ACID], the pIC50 on Glutamate NMDA receptor [1] is 2.38; at Glutamate NMDA receptor [3], 3.97. Also, in assay [2], the Ratio turned out to be 40.

As for `O=C(O)CCc1c(C(=O)O)[nH]c2cccc(Cl)c12`, the pIC50 against Glutamate NMDA receptor [1] was 4.23; against Glutamate NMDA receptor [3], 5.22. Moreover, the Ratio in assay [2] came to 10.

As for `O=C(O)c1cc(=O)c2ccccc2[nH]1` [TRANSTORINE], the pIC50 in the assay listed under Rattus norvegicus is 3.78.

In the case of `O=C(O)c1cc(O)c2ccc(Cl)cc2n1` [7-CHLOROKYNURENIC ACID], the results for the pIC50 on Glutamate NMDA receptor [1], in the assay filed under Rattus norvegicus and against Glutamate NMDA receptor [3] were 3.79, 5.10 and 6.40, respectively. The Ratio in assay [2] is 405.

As to `O=C(O)CCc1c(C(=O)O)[nH]c2c(Cl)cccc12`, the pIC50 against Glutamate NMDA receptor [1] is under 4.00; against Glutamate NMDA receptor [3], 4.05. For the same compound, the Ratio in assay [2] is over 1.

For the compound `O=C(O)c1cc2c(Cl)cc(Cl)cc2[nH]1`, the pIC50 against Glutamate NMDA receptor [1] was under 3.00; against Glutamate NMDA receptor [3] it was 5.22. In assay [2], the Ratio was over 150.

As to `O=C(O)c1cc(O)c2c(Cl)cc(Cl)cc2n1`, the figures for the pIC50 at Glutamate NMDA receptor [1], in the assay filed under Rattus norvegicus and against Glutamate NMDA receptor [3] were 4.92, 5.60 and 7.10, respectively. Further, the Ratio in assay [2] was 150.

Take `O=C(O)CCc1c(C(=O)O)[nH]c2ccc(Cl)cc12`: the pIC50 against Glutamate NMDA receptor [1] is 4.60; at Glutamate NMDA receptor [3], 4.85. The Ratio in assay [2] came to 1.8.

For the compound `O=C(O)CCc1c(C(=O)O)[nH]c2cc(Cl)ccc12`, the pIC50 is 3.55 on Glutamate NMDA receptor [1] and 5.57 at Glutamate NMDA receptor [3]. In assay [2], the Ratio is 105.

In the case of `O=C(O)CCc1c(C(=O)O)[nH]c2cc(Cl)cc(Cl)c12`, the negative logarithm of the IC50 (pIC50) is 3.45 at Glutamate NMDA receptor [1], 5.30 in the assay listed under Rattus norvegicus and 6.85 on Glutamate NMDA receptor [3]. Also, the Ratio in assay [2] amounted to 2550.
